Assay results published in US11994512B2, “Single-cell genomic methods to generate ex vivo cell systems that recapitulate in vivo biology with improved fidelity” (Massachusetts Institute of Technology, priority 2018, dated 2024).

System: intracellular proteome of ENR+CD and ENR organoids
Assay: LC-MS/MS TMT proteomics of ENR+CD versus ENR organoids
Type: cell-based, C57BL/6 mice
Details: for change: up = enriched in ENR+CD, down = enriched in ENR, FDR<0.05 and log fold change cut-off
Text: Because PCs are highly secretory, protein-rich cells, Applicants sought to assess the total intracellular proteome between conditions through liquid chromatography mass spectrometry (LC-MS/MS)-based proteomics. Applicants quantified relative protein abundance across eight samples using isobaric mass tag labeling from four ENR and four ENR+CD samples (M1-1 through M2-2, first digit denotes biological donor, second digit denotes technical replicate) (FIG. 3A). Samples were processed and analyzed in a single 10-plex by LC-MS/MS (FIG. 9A).
To affirm the reproducibility of the associated proteins in the ENR+CD-enriched proteome, Applicants performed relative quantification within differentiation sets.
Mass spectrometry proteomics sample preparation, sequencing, and quantification. Organoid cell pellets were isolated from Matrigel with mechanical dissociation and washed (cold PBS 5X) to remove residual extracellular protein. Proteins were extracted from cell pellets with 8 M urea (Sigma), reduced with 5 mM DTT (Thermo Fisher Pierce) for 45 minutes, alkylated with 10 mM IAA (Sigma) for 45 minutes in the dark, and double digested with both Lysyl Endopeptidase “LysC” (Wako) and trypsin (Promega) overnight at RT. A small aliquot of cellular lysate was removed from each sample for protein quantification via the Pierce™ BCA Protein Assay Kit (Pierce). After proteolytic digestion, the samples were quenched using formic acid to a final concentration of 1.0% and subsequently desalted on 10 mg OASIS HLB solid phase columns (Waters).
The peptides were labeled with TMT-10 isobaric mass tag reagent according to manufacturer's instructions (ThermoFisher Scientific). The peptides were labeled at a 1:8 ratio of peptide to TMT reagent, followed by 1-hour incubation at RT with bench top shaking at 850 rpm. After incubation, a […] of labeled tryptic peptide was removed from each labeled condition, desalted with C18 stage tips, and analyzed via LC-MS/MS using a Thermo Fisher Q Exactive Plus Hybrid Mass Spectrometer (QE-Plus) coupled to a Thermo Fisher EASY-nLC 1000 liquid chromatograph to ensure isobaric label incorporation >95%. An additional 1.0 μg of labeled tryptic peptide was removed from each channel, mixed together, desalted on a C18 stage tip, and analyzed via LC-MS to ensure equal relative protein loads. During these quality control steps, the labeled peptides were stored, unquenched at −80° C.

[1] = protein abundance, ENR+CD versus ENR organoids, aggregate of the four sample pairs
[2] = protein abundance, ENR+CD versus ENR organoids, replicate M1-1, log2 ratio
[3] = protein abundance, ENR+CD versus ENR organoids, replicate M1-2, log2 ratio
[4] = protein abundance, ENR+CD versus ENR organoids, replicate M2-1, log2 ratio
[5] = protein abundance, ENR+CD versus ENR organoids, replicate M2-2, log2 ratio
[6] = ENR+CD versus ENR organoids, sample pairs in aggregate (n=4, 2 technical replicates from two biological donors)
[7] = protein abundance ratio ENR+CD versus ENR organoids, sample pair M1-1, LC-MS/MS TMT proteomics
[8] = protein abundance ratio ENR+CD versus ENR organoids, sample pair M1-2, LC-MS/MS TMT proteomics
[9] = protein abundance ratio ENR+CD versus ENR organoids, sample pair M2-1, LC-MS/MS TMT proteomics
[10] = protein abundance ratio ENR+CD versus ENR organoids, sample pair M2-2, LC-MS/MS TMT proteomics

B9EJA2
Average logFC [1]: −1.156
M1-1 Log2 Median Normalized [2]: −1.439
M1-2 Log2 Median Normalized [3]: −1.031
M2-1 Log2 Median Normalized [4]: −0.9535
M2-2 Log2 Median Normalized [5]: −1.2
change: down

O70472
Average logFC [1]: 1.172
M1-1 Log2 Median Normalized [2]: 1.419
M1-2 Log2 Median Normalized [3]: 0.87
M2-1 Log2 Median Normalized [4]: 1.3875
M2-2 Log2 Median Normalized [5]: 1.011
change: up

O70514
Average logFC [1]: −1.202
M1-1 Log2 Median Normalized [2]: −1.413
M1-2 Log2 Median Normalized [3]: −1.091
M2-1 Log2 Median Normalized [4]: −1.0895
M2-2 Log2 Median Normalized [5]: −1.216
change: down

P02798
Average logFC [1]: −2.904
M1-1 Log2 Median Normalized [2]: −2.904
M1-2 Log2 Median Normalized [3]: −2.907
M2-1 Log2 Median Normalized [4]: −2.2505
M2-2 Log2 Median Normalized [5]: −3.047
change: down

P02802
Average logFC [1]: −1.725
M1-1 Log2 Median Normalized [2]: −2.19
M1-2 Log2 Median Normalized [3]: −2.322
M2-1 Log2 Median Normalized [4]: −1.3715
M2-2 Log2 Median Normalized [5]: −1.016
change: down

P07309
Average logFC [1]: 1.249
M1-1 Log2 Median Normalized [2]: 1.309
M1-2 Log2 Median Normalized [3]: 0.951
M2-1 Log2 Median Normalized [4]: 1.2255
M2-2 Log2 Median Normalized [5]: 1.511
change: up

P07310
Average logFC [1]: −2.279
M1-1 Log2 Median Normalized [2]: −1.418
M1-2 Log2 Median Normalized [3]: −3.14
M2-1 Log2 Median Normalized [4]: −2.0165
M2-2 Log2 Median Normalized [5]: −2.541
change: down

P09405
Average logFC [1]: −1.217
M1-1 Log2 Median Normalized [2]: −1.377
M1-2 Log2 Median Normalized [3]: −0.807
M2-1 Log2 Median Normalized [4]: −1.0695
M2-2 Log2 Median Normalized [5]: −1.615
change: down

P18894
Average logFC [1]: −1.376
M1-1 Log2 Median Normalized [2]: −1.222
M1-2 Log2 Median Normalized [3]: −1.706
M2-1 Log2 Median Normalized [4]: −1.8305
M2-2 Log2 Median Normalized [5]: −0.745
change: down

P47968
Average logFC [1]: −1.292
M1-1 Log2 Median Normalized [2]: −0.958
M1-2 Log2 Median Normalized [3]: −1.223
M2-1 Log2 Median Normalized [4]: −1.2935
M2-2 Log2 Median Normalized [5]: −1.827
change: down

P56382 (MVAYWRQAGLSYIRFSQICAKAVRDALKTEFKANAEKTSGSSIKIVKVSKKE; full-length; UniProt P56382 1-52, looked up)
Average logFC [1]: −2.387
M1-1 Log2 Median Normalized [2]: −1.051
M1-2 Log2 Median Normalized [3]: −3.179
M2-1 Log2 Median Normalized [4]: −1.3955
M2-2 Log2 Median Normalized [5]: −3.924
change: down

P56716
Average logFC [1]: 1.303
M1-1 Log2 Median Normalized [2]: 0.494
M1-2 Log2 Median Normalized [3]: 1.733
M2-1 Log2 Median Normalized [4]: 1.3015
M2-2 Log2 Median Normalized [5]: 1.329
change: up

P84102 (MTRGNQRELARQKNMKKQSDSVKGKRRDDGLSAAARKQRDSEIMQQKQKKANEKKEEPK; full-length; UniProt P84102 1-59, looked up)
Average logFC [1]: 1.286
M1-1 Log2 Median Normalized [2]: 1.517
M1-2 Log2 Median Normalized [3]: 0.63
M2-1 Log2 Median Normalized [4]: 2.2205
M2-2 Log2 Median Normalized [5]: 0.775
change: up

P97328
Average logFC [1]: −1.236
M1-1 Log2 Median Normalized [2]: −1.151
M1-2 Log2 Median Normalized [3]: −2.263
M2-1 Log2 Median Normalized [4]: −1.4115
M2-2 Log2 Median Normalized [5]: −0.12
change: down

P97479
Average logFC [1]: −1.162
M1-1 Log2 Median Normalized [2]: −1.135
M1-2 Log2 Median Normalized [3]: −1.101
M2-1 Log2 Median Normalized [4]: −1.2195
M2-2 Log2 Median Normalized [5]: −1.191
change: down

Q4ACU6
Average logFC [6]: −1.637
M1-1 Log2 Median Normalized [7]: −1.525
M1-2 Log2 Median Normalized [8]: −1.512
M2-1 Log2 Median Normalized [9]: −1.6745
M2-2 Log2 Median Normalized [10]: −1.835
change: down

Q6ZWR6
Average logFC [6]: 1.168
M1-1 Log2 Median Normalized [7]: 1.167
M1-2 Log2 Median Normalized [8]: 0.703
M2-1 Log2 Median Normalized [9]: 1.1985
M2-2 Log2 Median Normalized [10]: 1.566
change: up

Q7JJ13
Average logFC [6]: −1.145
M1-1 Log2 Median Normalized [7]: −1.243
M1-2 Log2 Median Normalized [8]: −0.748
M2-1 Log2 Median Normalized [9]: −0.9235
M2-2 Log2 Median Normalized [10]: −1.666
change: down

Q8BHB9
Average logFC [6]: −1.288
M1-1 Log2 Median Normalized [7]: −1.576
M1-2 Log2 Median Normalized [8]: −1.245
M2-1 Log2 Median Normalized [9]: −1.3195
M2-2 Log2 Median Normalized [10]: −1.01
change: down

Q8BRB7
Average logFC [6]: −1.345
M1-1 Log2 Median Normalized [7]: −0.966
M1-2 Log2 Median Normalized [8]: −1.077
M2-1 Log2 Median Normalized [9]: −1.3755
M2-2 Log2 Median Normalized [10]: −1.962
change: down

Q8R0T2
Average logFC [6]: −1.493
M1-1 Log2 Median Normalized [7]: −1.662
M1-2 Log2 Median Normalized [8]: −0.647
M2-1 Log2 Median Normalized [9]: −0.8365
M2-2 Log2 Median Normalized [10]: −2.825
change: down

Q8VHB5
Average logFC [6]: −1.632
M1-1 Log2 Median Normalized [7]: −1.611
M1-2 Log2 Median Normalized [8]: −1.401
M2-1 Log2 Median Normalized [9]: −1.7625
M2-2 Log2 Median Normalized [10]: −1.754
change: down

Q9CPS7
Average logFC [6]: −1.227
M1-1 Log2 Median Normalized [7]: −1.383
M1-2 Log2 Median Normalized [8]: −1.226
M2-1 Log2 Median Normalized [9]: −0.9215
M2-2 Log2 Median Normalized [10]: −1.327
change: down
